Measurements: US7759345B2, “Antitumoral derivatives of ET-743” (priority 2001, dated 2010)
Where two headings read alike, the source gives them in different places.

Columns and labels:
HT-29 = assay: Inhibition of cells growth by colorimetric assay (SRB), HT-29; assay type: cell-based; conditions: for GI50 / LC50 (concentration for 50% cell killing): Homo sapiens, HT-29, 48 h
Procedure: (§1) 2°.—Inhibition of Cells Growth by Colorimetric Assay.
(§2) A colorimetric type of assay, using sulforhodamine B (SRB) reaction has been adapted for a quantitative measurement of cell growth and viability [following the technique described by Philip Skehan, et al. (1990), New colorimetric cytotoxicity assay for anticancer drug screening, J. Natl. Cancer Inst., 82:1107-1112]
(§3) This form of the assay employs 96 well cell culture microplates of 9 mm diameter (Faircloth, 1988; Mosmann, 1983). Most of the cell lines are obtained from American Type Culture Collection (ATCC) derived from different human cancer types.
(§4) Cells are maintained in RPMI 1640 10% FBS, supplemented with 0.1 g/l penicillin and 0.1 g/l streptomycin sulfate and then incubated at 37° C., 5% CO2 and 98% humidity. For the experiments, cells were harvested from subconfluent cultures using trypsin and resuspended in fresh medium before plating.
(§5) Cells are seeded in 96 well microtiter plates, at 5×10^3 cells per well in aliquots of 195 μl medium, and they are allowed to attach to the plate surface by growing in drug free medium for 18 hours. Afterward, samples are added in aliquots of 5 μl in a ranging from 10 to 10^−8 μg/ml, dissolved in DMSO/EtOH/PBS (0.5:0.5:99). After 48 hours exposure, the antitumor effect are measured by the SRB methodology: cells are fixed by adding 50 μl of cold 50% (wt/vol) trichloroacetic acid (TCA) and incubating for 60 minutes at 4° C. Plates are washed with deionized water and dried. One hundred μl of SRB solution (0.4% wt/vol in 1% acetic acid) is added to each microtiter well and incubated for 10 minutes at room temperature. Unbound SRB is removed by washing with 1% acetic acid. Plates are air dried and bound stain is solubilized with Tris buffer. Optical densities are read on a automated spectrophotometric plate reader at a single wavelength of 490 nm.
(§6) The values for mean+/−SD of data from triplicate wells are calculated. Some parameters for cellular responses can be calculated: GI=growth inhibition, TGI=total growth inhibition (cytostatic effect) and LC=cell killing (cytotoxic effect).
(§7) Obtained results may predict the usefulness of a certain drug as a potential cancer treatment. For this technique, compounds which show GI50 values smaller than 10 μg/ml are selected to continue with further studies. GI50's data allow to predict that not only could a drug be cystostatic, but also it could have a potential in terms of tumor reduction.

A-549 = assay: Inhibition of cells growth by colorimetric assay (SRB), A-549; assay type: cell-based; conditions: for GI50 / LC50 (concentration for 50% cell killing): Homo sapiens, A549, 48 h
Procedure: as §1, §2, §3, §4, §5, §6, §7

[1] = HT-29, SRB, 48 hours exposure, read-out: GI50 HT-29
[2] = read-out: LC50 HT-29, HT-29, SRB, 48 hours exposure
[3] = A-549, SRB, 48 hours exposure, read-out: GI50 A-549
[4] = read-out: LC50 A-549, A-549, SRB, 48 hours exposure

Row | Compound | TGI HT-29 (HT-29; HT-29, SRB, 48 hours exposure) | GI50 (HT-29; [1]) [nM] | LC50 (concentration for 50% cell killing) (HT-29; [2]) [µM] | TGI A-549 (A-549; A-549, SRB, 48 hours exposure) | GI50 (A-549; [3]) [nM] | LC50 (concentration for 50% cell killing) (A-549; [4]) [nM] | other results
1 | C=COC(=O)Oc1cc2c(cc1OC)[C@@]1(CS[C@@H]3c4c(OC(C)=O)c(C)c5c(c4[C@H](COC1=O)N1C3[C@H]3c4c(cc(C)c(OC)c4OC(=O)OC=C)C[C@@H]([C@@H]1C#N)N3C)OCO5)NCC2 (stereo partly drawn) [Compound 30] | 8.78E-08 | 87.8 | 11 | 5.49E-08 | 32.9 | 3290 | –
2 | COc1cc2c(cc1OC(=O)C(F)(F)C(F)(F)C(F)(F)F)CCN[C@]21CS[C@@H]2c3c(OC(C)=O)c(C)c4c(c3[C@H](COC1=O)N1C2[C@H]2c3c(cc(C)c(OC)c3O)C[C@@H]([C@@H]1C#N)N2C)OCO4 (stereo partly drawn) [Compound 13] | 3.24E-10 | 0.324 | 0.0108 | 3.24E-09 | 1.08 | 8.65 | –
3 | CC(=O)Oc1c(C)c2c(c3c1[C@H]1SCC(=O)C(=O)OC[C@@H]3N3C1[C@H]1c4c(cc(C)c(O)c4O)C[C@@H]([C@@H]3C#N)N1C)OCO2 (stereo partly drawn) [Compound 219] | – | – | – | – | – | – | GI50 (HT-29; SRB assay, 48 hours exposure, read-out: HT-29 GI50): 82.4 nM; LC50 (concentration for 50% cell killing) (HT-29; read-out: HT-29 LC50, SRB assay, 48 hours exposure): 16.5 µM; HT-29 TGI (HT-29; SRB assay, 48 hours exposure): 1.65E-06; GI50 (A-549; SRB assay, 48 hours exposure, read-out: A-549 GI50): 8.24 nM; LC50 (concentration for 50% cell killing) (A-549; read-out: A-549 LC50, SRB assay, 48 hours exposure): 16500 nM; A-549 TGI (A-549; SRB assay, 48 hours exposure): 1.65E-06
4 | COc1cc2c(cc1O)CCN[C@]21CS[C@@H]2c3c(OC(=O)CCCC[C@@H]4SCC5NC(=O)NC54)c(C)c4c(c3[C@H](COC1=O)N1C2[C@H]2c3c(cc(C)c(OC)c3O)C[C@@H]([C@@H]1C#N)N2C)OCO4 (stereo partly drawn) [Compound 147] | – | – | – | – | – | – | HT-29 TGI (HT-29; HT-29, SRB, 48 hours exposure): 1.05E-07; GI50 (HT-29; HT-29, SRB, 48 hours exposure, read-out: HT-29 GI50): 19.7 nM; LC50 (concentration for 50% cell killing) (HT-29; read-out: HT-29 LC50, HT-29, SRB, 48 hours exposure): 10.5 µM; A-549 TGI (A-549; A-549, SRB, 48 hours exposure): 6.84E-08; GI50 (A-549; A-549, SRB, 48 hours exposure, read-out: A-549 GI50): 32.6 nM; LC50 (concentration for 50% cell killing) (A-549; read-out: A-549 LC50, A-549, SRB, 48 hours exposure): 1050 nM
5 | COc1cc2c(cc1O)CCN[C@]21CS[C@@H]2c3c(OC(C)=O)c(C)c4c(c3[C@H](COC1=O)N1C2[C@H]2c3c(cc(C)c(OC)c3OC)C[C@@H]([C@@H]1C#N)N2C)OCO4 (stereo partly drawn) [Compound 36] | 2.55E-08 | 5.67 | 12.7 | 1.03E-07 | 6.26 | 4140 | –
6 | C=COC(=O)Oc1cc2c(cc1OC)[C@@]1(CS[C@@H]3c4c(OC(C)=O)c(C)c5c(c4[C@H](COC1=O)N1C3[C@H]3c4c(cc(C)c(OC)c4O)C[C@@H]([C@@H]1C#N)N3C)OCO5)N(C(=O)OC=C)CC2 (stereo partly drawn) [Compound 32] | 6.60E-09 | 1.1 | 0.00988 | 6.59E-09 | 2.2 | 11 | –
7 | C=COC(=O)Oc1cc2c(cc1OC)[C@@]1(CS[C@@H]3c4c(OC(C)=O)c(C)c5c(c4[C@H](COC1=O)N1C3[C@H]3c4c(cc(C)c(OC)c4OC(=O)OC=C)C[C@@H]([C@@H]1C#N)N3C)OCO5)N(C(=O)OC=C)CC2 (stereo partly drawn) [Compound 31] | 8.15E-08 | 81.5 | 10.2 | 9.17E-08 | 40.8 | 1020 | –
